This is an account of results in patent publication US8846601B2, “Melanocortin receptor-specific peptides” (Palatin Technologies, Inc., priority 2009, dated 2014).

SMILES strings stand for the structures. Bridge positions count the residues as written; N and C are the ends. Square brackets hold non-standard residues; d marks the D form. Peptide text beside a SMILES is read from it. * marks the point of attachment. Bn = c1ccc(C*)cc1

Chain of hMC4-R (P32245 whole entry): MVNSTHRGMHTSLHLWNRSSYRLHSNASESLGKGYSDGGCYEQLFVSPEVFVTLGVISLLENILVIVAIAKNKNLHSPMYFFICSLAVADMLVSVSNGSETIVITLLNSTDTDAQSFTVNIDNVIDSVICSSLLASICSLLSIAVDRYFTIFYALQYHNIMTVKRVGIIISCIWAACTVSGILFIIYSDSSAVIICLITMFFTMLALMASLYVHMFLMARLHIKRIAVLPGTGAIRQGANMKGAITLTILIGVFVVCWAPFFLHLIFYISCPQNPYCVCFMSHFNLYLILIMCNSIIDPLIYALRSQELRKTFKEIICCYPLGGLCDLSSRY

This assay concerns the target hMC4-R (Homo sapiens (Human), UniProt P32245). The experiment in a line: Competitive inhibition binding assay using [I125]-NDP-α-MSH, hMC4-R membranes. The following applies: averaged; [I125]-NDP-α-MSH (values not marked *); read-out: MC4-R Ki. As for the experimental part:
A competitive inhibition binding assay is performed using membrane homogenates prepared from HEK-293 cells that express recombinant hMC4-R, hMC3-R, or hMC5-R, and from B-16 mouse melanoma cells (containing endogenous MC1-R). In some instances, HEK-293 cells that express recombinant hMC1-R were employed. In the examples that follow, all MC3-R, MC4-R and MC5-R values are for human recombinant receptors. […] Membrane homogenates were incubated with 0.2 nM (for hMC4-R) 0.4 nM (for MC3-R and MC5-R) or 0.1 nM (for mouse B16 MC1-R or hMC1-R) [I^125]-NDP-α-MSH (Perkin Elmer) and increasing concentrations of test peptides of the present invention in buffer containing 25 mM HEPES buffer (pH 7.5) with 100 mM NaCl, 2 mM CaCl2, 2 mM MgCl2, 0.3 mM 1,10-phenanthroline, and 0.2% bovine serum albumin. After incubation for 60 minutes at 37° C., the assay mixture was filtered and the membranes washed three times with ice-cold buffer. Filters were dried and counted in a gamma counter for bound radioactivity. […] Maximal specific binding (100%) was defined as the difference in radioactivity (cpm) bound to cell membranes in the absence and presence of 1 μM NDP-α-MSH. […] Each assay was conducted in triplicate and the actual mean values are described, with results less than 0% reported as 0%. Ki values for test peptides of the present invention were determined using Graph-Pad Prism® curve-fitting software.
Usually Ki stands for a measure of affinity in units of concentration, obtained from inhibition or displacement. Consider `CC(=O)N[C@@H](CCCNC(=N)N)C(=O)N[C@H]1CC(=O)NCCCC[C@@H](C(N)=O)NC(=O)[C@H](Cc2c[nH]c3ccccc23)NC(=O)[C@H](CCCNC(=N)N)NC(=O)[C@@H](Cc2ccccc2)NC(=O)[C@H](CO)NC1=O` [Peptide No. 3, Ac-Arg-cyclo(Asp-Ser- D-Phe-Arg-Trp-Lys)- NH2], for which the inhibition constant Ki is 172 nM.

Take `CC(=O)N[C@@H](CCCNC(=N)N)C(=O)N[C@H]1CC(=O)NCCCC[C@@H](C(N)=O)NC(=O)[C@H](Cc2c[nH]c3ccccc23)NC(=O)[C@H](CCCNC(=N)N)NC(=O)[C@@H](Cc2ccccc2)NC(=O)[C@H]([C@@H](C)OCc2ccccc2)NC1=O` [compound 14, Ac-Arg-cyclo(Asp- Thr(Bzl)-D-Phe-Arg- Trp-Lys)-NH2] (Ac-RDT(Bn)[dF]RWK-NH2; lactam 2-7): the inhibitory constant (Ki) is 1 nM.

Take `CC(=O)N[C@@H](CCCNC(=N)N)C(=O)N[C@H]1CC(=O)NCCCC[C@@H](C(N)=O)NC(=O)[C@H](Cc2c[nH]c3ccccc23)NC(=O)[C@H](CCCNC(=N)N)NC(=O)[C@@H](Cc2cccc3ccccc23)NC(=O)[C@H](Cc2c[nH]cn2)NC1=O` [compound 19, Ac-Arg-cyclo(Asp-His- D-Nal 1-Arg-Trp-Lys)- NH2]: the Ki worked out at 3 nM.

As to `CC(=O)N[C@@H](CCCNC(=N)N)C(=O)N[C@H]1CC(=O)NCCCC[C@@H](C(N)=O)NC(=O)[C@H](Cc2c[nH]c3ccccc23)NC(=O)[C@H](CCCNC(=N)N)NC(=O)[C@@H](Cc2ccccc2)NC(=O)[C@H](Cc2cccc(C(N)=O)c2)NC1=O` [compound 49, Ac-Arg-cyclo(Asp-Phe- (3-(C(═O)—NH2))-D-Phe- Arg-Trp-Lys)-NH2], the Ki came to 15 nM.

Take `CC(=O)N[C@@H](CCCNC(=N)N)C(=O)N[C@H]1CC(=O)NCCCC[C@@H](C(N)=O)NC(=O)[C@H](Cc2c[nH]c3ccccc23)NC(=O)[C@H](CCCNC(=N)N)NC(=O)[C@@H](Cc2ccccc2)NC(=O)[C@H](Cc2ccc(C(N)=O)cc2)NC1=O` [compound 50, Ac-Arg-cyclo(Asp- Phe(4-(C(═O)—NH2))-D- Phe-Arg-Trp-Lys)-NH2]: the Ki was 30 nM.

Regarding `CC(=O)N[C@@H](CCCNC(=N)N)C(=O)N[C@H]1CC(=O)NCCCC[C@@H](C(=O)O)NC(=O)[C@H](Cc2c[nH]c3ccccc23)NC(=O)[C@H](CCCNC(=N)N)NC(=O)[C@@H](Cc2ccccc2)NC(=O)[C@@H]2C[C@@H](OCc3ccccc3)CN2C1=O` [compound 54, Ac-Arg-cyclo(Asp- Hyp(Bzl)-D-Phe-Arg- Trp-Lys)-OH], the Ki came out at 3 nM.

In the case of `CC(=O)N[C@@H](CCCNC(=N)N)C(=O)N[C@H]1CC(=O)NCCCC[C@@H](C(=O)O)NC(=O)[C@H](Cc2c[nH]c3ccccc23)NC(=O)[C@H](CCCNC(=N)N)NC(=O)[C@@H](Cc2ccccc2)NC(=O)[C@@H]2C[C@@H](Cc3ccccc3)CN2C1=O` [compound 55, Ac-Arg-cyclo(Asp- Pro(Bn)-D-Phe-Arg- Trp-Lys)-OH], the inhibition constant Ki worked out at 12 nM.

Take `CC(=O)N[C@@H](CCCNC(=N)N)C(=O)N[C@H]1CC(=O)NCCCC[C@@H](C(N)=O)NC(=O)[C@H](Cc2c[nH]c3ccccc23)NC(=O)[C@H](CCCNC(=N)N)NC(=O)[C@@H](Cc2ccccc2)NC(=O)[C@H](CCC(N)=O)NC1=O` [compound 57, Ac-Arg-cyclo(Asp-Gln- D-Phe-Arg-Trp-Lys)-OH]: the Ki was found to be 115 nM.

`CC(=O)N[C@@H](CCCNC(=N)N)C(=O)N[C@H]1CC(=O)NCCCC[C@@H](C(=O)O)NC(=O)[C@H](Cc2c[nH]c3ccccc23)NC(=O)[C@H](CCCNC(=N)N)NC(=O)[C@@H](Cc2ccccc2)NC(=O)[C@H](CCCN)NC1=O` [compound 58, Ac-Arg-cyclo(Asp-Orn- D-Phe-Arg-Trp-Lys)-OH]: the Ki was 23 nM.

As for `CC(=O)N[C@@H](CCCNC(=N)N)C(=O)N[C@H]1CC(=O)NCCCC[C@@H](C(N)=O)NC(=O)[C@H](Cc2c[nH]c3ccccc23)NC(=O)[C@H](CCCNC(=N)N)NC(=O)[C@@H](Cc2ccccc2)NC(=O)CN(C)C1=O` [compound 63, Ac-Arg-cyclo(Asp-Sar- D-Phe-Arg-Trp-Lys)- NH2], the inhibition constant (Ki) was 15 nM.

On to `CC(=O)N[C@@H](CCCNC(=N)N)C(=O)N[C@H]1CCCNC(=O)CC[C@@H](C(N)=O)NC(=O)[C@H](Cc2c[nH]c3ccccc23)NC(=O)[C@H](CCCNC(=N)N)NC(=O)[C@@H](Cc2ccccc2)NC(=O)[C@H](Cc2c[nH]cn2)NC1=O` [compound 75, Ac-Arg-cyclo(Orn-His- D-Phe-Arg-Trp-Glu)- NH2] (HELM PEPTIDE1{[ac].R.[Orn].H.[dF].R.W.E.[am]}$PEPTIDE1,PEPTIDE1,3:R3-8:R3$$$V2.0), for which the Ki is 0.6 nM.

Take `CC(=O)N[C@@H](CCCNC(=N)N)C(=O)N[C@H]1CC(=O)NCCCC[C@@H](C(N)=O)NC(=O)[C@H](Cc2c[nH]c3ccccc23)NC(=O)[C@H](CCCNC(=N)N)NC(=O)[C@@H](Cc2ccccc2)NC(=O)[C@@H]2C[C@@H](O)CN2C1=O` [compound 79, Ac-Arg-cyclo(Asp-Hyp- D-Phe-Arg-Trp-Lys)- NH2]: the inhibition constant Ki came to 4 nM.

For the compound `CC(=O)N[C@@H](CCCNC(=N)N)C(=O)N[C@H]1CCC(=O)NCCC[C@@H](C(=O)O)NC(=O)[C@H](Cc2c[nH]c3ccccc23)NC(=O)[C@H](CCCNC(=N)N)NC(=O)[C@@H](Cc2ccccc2)NC(=O)[C@H](Cc2c[nH]cn2)NC1=O` [compound 82, Ac-Arg-cyclo(Glu-His- D-Phe-Arg-Trp-Orn)- OH] (HELM PEPTIDE1{[ac].R.E.H.[dF].R.W.[Orn]}$PEPTIDE1,PEPTIDE1,3:R3-8:R3$$$V2.0), the Ki is 4 nM.

As to `CC(=O)N[C@@H](CCCNC(=N)N)C(=O)N[C@H]1CCC(=O)NCCC[C@@H](C(=O)O)NC(=O)[C@H](Cc2c[nH]c3ccccc23)NC(=O)[C@H](CCCNC(=N)N)NC(=O)[C@@H](Cc2ccccc2)NC(=O)[C@H](CCCN)NC1=O` [compound 90, Ac-Arg-cyclo(Glu-Orn- D-Phe-Arg-Trp-Orn)- OH], the inhibition constant Ki came out at 9 nM.

For the compound `N=C(N)NCCC[C@@H]1NC(=O)[C@@H](Cc2ccccc2)NC(=O)[C@H](Cc2c[nH]cn2)NC(=O)[C@@H](NC(=O)[C@@H](N)CCCNC(=N)N)CCCNC(=O)CC[C@@H](C(N)=O)NC(=O)[C@H](Cc2c[nH]c3ccccc23)NC1=O` [compound 99, Arg-cyclo(Orn-His-D- Phe-Arg-Trp-Glu)-NH2] (HELM PEPTIDE1{R.[Orn].H.[dF].R.W.E.[am]}$PEPTIDE1,PEPTIDE1,2:R3-7:R3$$$V2.0), the inhibitory constant (Ki) was 6 nM.

As to `CC(=O)N[C@@H](CCCNC(=N)N)C(=O)N[C@H]1CCC(=O)NCCC[C@@H](C(N)=O)NC(=O)[C@H](Cc2c[nH]c3ccccc23)NC(=O)[C@H](CCCNC(=N)N)NC(=O)[C@@H](Cc2ccccc2)NC(=O)[C@H](CC[S+](C)[O-])NC1=O` (stereo partly drawn) [compound 111, Ac-Arg-cyclo(Glu- Met(═O)-D-Phe-Arg- Trp-Orn)-NH2], the Ki was found to be 9 nM.

As for `CC(=O)N[C@@H](CCCNC(=N)N)C(=O)N[C@H]1CC(=O)NCCCC[C@@H](C(N)=O)NC(=O)[C@H](Cc2c[nH]c3ccccc23)NC(=O)[C@H](CCCNC(=N)N)NC(=O)[C@@H](Cc2ccccc2)NC(=O)[C@H](CO)NC1=O` [compound 117, Ac-Arg-cyclo(Asp-Ser- D-Phe-Cit-Trp-Lys)-NH2], the Ki amounted to 1450 nM.

With `CC(=O)N[C@@H](CCCNC(=N)N)C(=O)N[C@H]1CCCCNC(=O)C[C@@H](C(N)=O)NC(=O)[C@H](Cc2c[nH]c3ccccc23)NC(=O)[C@H](CCCNC(=N)N)NC(=O)[C@@H](Cc2ccccc2)NC(=O)[C@H](CCN)NC1=O` [compound 121, Ac-Arg-cyclo(Lys-Dab- D-Phe-Arg-Trp-Asp)- NH2] (HELM PEPTIDE1{[ac].R.K.[Dab].[dF].R.W.D.[am]}$PEPTIDE1,PEPTIDE1,3:R3-8:R3$$$V2.0), the inhibitory constant (Ki) was 0.4 nM.
